Measurements published in patent US12213978B2, “Madrasin-derivative compounds, composition and uses thereof for treating cancer” (INSTITUT GUSTAVE ROUSSY, priority 2018, dated 2025).

Assays:
[1] = system: MCA205 sarcoma cells expressing the intron-derived SL8 antigen; test: T-cell assay: B3Z specific T-cell activation by MCA205 cells expressing the intron-derived SL8 antigen; format: cell-based, mouse; conditions: for PTP-SL8 presentation (B3Z T-cell activation): O/N
Description: (§1) MCA205 mouse sarcoma cell line is cultured at 37° C. under 5% CO2 in RPMI 1640 medium (Life Technologies) in the presence of 1% glutamine, 1% sodium pyruvate, 1% non-essential amino-acids, 1% penicillin/streptomycin and 10% FBS (Life Technologies). B16F10 mouse melanoma cell line is cultured at 37° C. under 5% CO2 in DMEM medium (Life Technologies) containing 1% glutamine, 1% penicillin/streptomycin and 10% FCS under standard conditions. Stable MCA205-Globin-SL8-intron cell line are cultured under the same condition as MCA205 cell line with additional 500 μg/ml G418 (Life Technologies) for selection. Stable B16F10-Globin-SL8-intron cell line are cultured under the same condition as B16F10 cell line with additional 500 μg/ml G418 (Life Technologies) for selection. The SL8/Kb-specific (B3Z) T-cell reporter hybridoma are cultured at 37° C. under 5% CO2 in RPMI 1640 medium (Life Technologies) in the presence of 1% L-glutamine, 1% penicillin/streptomycin, 50 μM β-mercaptoéthanol and 10% FCS.
(§2) MCA205 and B16F10 mouse cell lines are transfected with the plasmid YFP-Globin-SL8-intron or with the PCDNA3 empty plasmid (negative control) with the transfection reagent jetPRIME (Ozyme) or GeneJuice (Millipore) respectively according to each manufacturer protocol. Twenty-four hours after transfection, cells are treated with different doses of Madrasin (Sigma SML 1409), Madra.HCl (3·HCl) or the different compounds herein cited. Cells are then washed three times with PBS 1× and 5.10^4 tumor cells are co-cultured with 1.10^5 B3Z hybridoma in a 96-well plate. In positive control wells, 4 μg/ml of synthetic peptide SL8 is added. Cells are then incubated overnight at 37° C. with 5% CO2. The plate is centrifuged at 1200 rpm for 5 min, cells are washed twice with PBS 1× and lysed for 5 min at 4° C. under shaking in 0.2% TritonX-100, 0.2% DTT, 0.5M K2HPO4, 0.5M KH2PO4. The lysate is centrifuged at 3000 rpm for 10 min and the supernatant is transferred to a 96-well optiplate (OptiPlaque-96, PerkinElmer). A revelation buffer containing 10 mM MgCl2, 11.2 mM β-mercaptoethanol, 0.0015% IGEPAL® CA-630 and 40 μM 4-Methylumbelliferyl β-D-Galactopyranoside (MUG) in PBS is added and the plate is incubated at room temperature for 3 hours. Finally, the β-galactosidase activity is measured using the FLUOstar OPTIMA (BMG LABTECH Gmbh, 30 Offenburg, Germany). Results are expressed as mean±SEM. *P<0.05, **P<0.01, ***P<0.001 (unpaired student t test).

[2] = system: B16F10 melanoma cells expressing the intron-derived SL8 antigen; test: T-cell assay: B3Z specific T-cell activation by B16F10 cells expressing the intron-derived SL8 antigen; format: cell-based, mouse; conditions: for PTP-SL8 presentation (B3Z T-cell activation): O/N
Description: as §1, §2

Solubility in water = format: physicochemical

## COc1ccc2c(C)nc(Nc3nc(C)c(C)c(=O)[nH]3)nc2c1SC1OC(COC(C)=O)C(OC(C)=O)C(OC(C)=O)C1OC(C)=O [EYP86, ((1S,2S,4R,5S,6S)-5-Acetoxy-7,8-diacetyl-4-((2-((4,5-dimethyl-6-oxo-1,6-dihydropyrimidin-2-yl)amino)-7-methoxy-4-methylquinazolin-8-yl)thio)-3,7λ^3,8λ^3-trioxabicyclo[4.2.0]octan-2-yl)methyl Acetate]
[1]; MCA205, 50 μM
  PTP-SL8 presentation (B3Z T-cell activation): increase

## COc1ccc2c(C)nc(Nc3nc(C)c(C)c(=O)[nH]3)nc2c1SCC(NC(C)=O)C(=O)O (stereo not drawn) [EYP102, N-Acetyl-S-(2-((4,5-dimethyl-6-oxo-1,6-dihydropyrimidin-2-yl)amino)-7-methoxy-4-methylquinazolin-8-yl)cysteine]
[2]; B16F10, 20 μM
  PTP-SL8 presentation (B3Z T-cell activation): not see any increase
[1]; MCA205, 20 μM
  PTP-SL8 presentation (B3Z T-cell activation): not see any increase

## COc1ccc2c(C)nc(Nc3nc(C)c(C)c(=O)[nH]3)nc2c1S[C@H]1O[C@@H](CO)[C@H](O)[C@@H](O)[C@@H]1O [EYP113, 2-((7-Methoxy-4-methyl-8-(((2R,3S,4R,5R,6S)-3,4,5-trihydroxy-6-(hydroxymethyl)tetrahydro-2H-pyran-2-yl)thio)quinazolin-2-yl)amino)-5,6-dimethylpyrimidin-4(3H)-one]
[2]; B16F10, 10 μM
  PTP-SL8 presentation (B3Z T-cell activation): not see any increase
[1]; MCA205, 10 μM
  PTP-SL8 presentation (B3Z T-cell activation): not see any increase

## COc1ccc2c(C)nc(Nc3ccc(C)cc3)nc2c1 [EYP156, 7-Methoxy-4-methyl-N-(p-tolyl)quinazolin-2-amine]
[2]; B16F10, 60 μM
  PTP-SL8 presentation (B3Z T-cell activation): not see any increase
[1]; MCA205, 60 μM
  PTP-SL8 presentation (B3Z T-cell activation): not see any increase

## COc1ccc2c(C)nc(Nc3c[nH]c4ccccc34)nc2c1 [EYP165, N-(1H-Indol-3-yl)-7-methoxy-4-methylquinazolin-2-amine]
[2]; B16F10, 60 μM
  PTP-SL8 presentation (B3Z T-cell activation): increase
[1]; MCA205, 60 μM
  PTP-SL8 presentation (B3Z T-cell activation): increase

## COc1ccc2c(C)nc(Nc3ccc(OC)nc3)nc2c1 [EYP174, 7-Methoxy-N-(6-methoxypyridin-3-yl)-4-methylquinazolin-2-amine]
[2]; B16F10, 20 μM
  PTP-SL8 presentation (B3Z T-cell activation): increase

## COc1ccc2c(C)nc(Nc3cn(C(=O)OC(C)(C)C)c4ccccc34)nc2c1 [EYP177, t-Butyl 3-((7-methoxy-4-methylquinazolin-2-yl)amino)-1H-indole-1-carboxylate]
[2]; B16F10, 60 μM
  PTP-SL8 presentation (B3Z T-cell activation): not see any increase
[1]; MCA205, 60 μM
  PTP-SL8 presentation (B3Z T-cell activation): not see any increase

## COc1ccc2c(C)nc(Nc3nccc(OC)n3)nc2c1 [EYP179, 7-Methoxy-N-(4-methoxypyrimidin-2-yl)-4-methylquinazolin-2-amine]
[2]; B16F10, 20 μM
  PTP-SL8 presentation (B3Z T-cell activation): increase

## CNc1ccnc(Nc2nc(C)c3ccc(OC)cc3n2)n1 [EYP181, N^2-(7-Methoxy-4-methylquinazolin-2-yl)-N^4-methylpyrimidine-2,4-diamine]
[2]; B16F10, 10 μM
  PTP-SL8 presentation (B3Z T-cell activation): increase

## COc1ccc2c(C)nc(Nc3cc(OC)c(OC)c(OC)c3)nc2c1 [EYP188, 7-Methoxy-4-methyl-N-(3,4,5-trimethoxyphenyl)quinazolin-2-amine]
[1]; MCA205, 60 μM
  PTP-SL8 presentation (B3Z T-cell activation): increase

## COc1ccc2c(C)nc(Nc3ccnc(OC)n3)nc2c1 [EYP190, 7-Methoxy-N-(2-methoxypyrimidin-4-yl)-4-methylquinazolin-2-amine]
[2]; B16F10, 60 μM
  PTP-SL8 presentation (B3Z T-cell activation): increase

## Cc1nc(Nc2nc(C)c3ccc(OCCN4CCOCC4)cc3n2)[nH]c(=O)c1C [EYP201, 5,6-Dimethyl-2-((4-methyl-7-(2-morpholinoethoxy)quinazolin-2-yl)amino)pyrimidin-4(3H)-one]
[2]; B16F10, 20 μM
  PTP-SL8 presentation (B3Z T-cell activation): increase
[1]; MCA205, 20 μM
  PTP-SL8 presentation (B3Z T-cell activation): increase

## COc1ncc(Nc2ncc3ccccc3n2)cn1 [EYP281, N-(2-Methoxypyrimidin-5-yl)quinazolin-2-amine]
[2]; B16F10, 50 μM
  PTP-SL8 presentation (B3Z T-cell activation): increase
[1]; MCA205, 50 μM
  PTP-SL8 presentation (B3Z T-cell activation): increase

## COc1ccc2c(C)nc(Nc3nc(C)c(C)c(=O)[nH]3)nc2c1 [Madrasin, 2-((7-Methoxy-4-methylquinazolin-2-yl)amino)-5,6-dimethylpyrimidin-4(3H)-one]
[2]; B16F10, 5 μM or 10 μM, dose dependent
  PTPs-dependent antigen presentation (B3Z T-cell activation): increase
[1]; MCA205, 5 μM or 10 μM, dose dependent
  PTPs-dependent antigen presentation (B3Z T-cell activation): increase
Solubility in water
  solubility in water: insoluble in water
